Source: PMC10112521, “High-throughput AR dimerization assay identifies androgen disrupting chemicals and metabolites” (Frontiers in Toxicology, 2023)
Several values for one entry are separate records, joined by “and”; a condition that tells them apart may be missing. Identical values can stand only once. Like-named read-outs stand apart in the source and are kept apart here.

What was measured:
[1] = system: AR; parameters: method as in Kleinstreuer et al., 2017; conditions: 2017, cited from earlier work; for Agonist reference: AR agonist reference class ref Kleinstreuer et al.; for Antagonist reference: AR antagonist reference class ref Kleinstreuer et al.
[2] = system: AR2 cells (HepG2-AR2); assay: Alamar Blue (resazurin) post hoc cell viability / cytotoxicity assay in AR2 cells; conditions: spid Viability, sheet antagonist_fits; for hill_tp (Hill model top): 0 where win_model is Constant
Experimental: (§1) For antagonist mode and cytotoxicity data, well-level normalized response (resp) was calculated as: resp=100 * RLU−bval/pval−bval where pval is the median RLU value of the MEC positive control wells (minimum four wells).

[3] = system: AR2 cells (HepG2-AR2)
Experimental: as §1

[4] = target: T1, human AR (Homo sapiens, UniProt P10275); assay: AR2 assay, antagonist mode: disruption of R1881 (10 nM)-induced AR homodimerization in HepG2-AR2 cells; type: cell-based
T1 sequence (P10275 1-920) 1: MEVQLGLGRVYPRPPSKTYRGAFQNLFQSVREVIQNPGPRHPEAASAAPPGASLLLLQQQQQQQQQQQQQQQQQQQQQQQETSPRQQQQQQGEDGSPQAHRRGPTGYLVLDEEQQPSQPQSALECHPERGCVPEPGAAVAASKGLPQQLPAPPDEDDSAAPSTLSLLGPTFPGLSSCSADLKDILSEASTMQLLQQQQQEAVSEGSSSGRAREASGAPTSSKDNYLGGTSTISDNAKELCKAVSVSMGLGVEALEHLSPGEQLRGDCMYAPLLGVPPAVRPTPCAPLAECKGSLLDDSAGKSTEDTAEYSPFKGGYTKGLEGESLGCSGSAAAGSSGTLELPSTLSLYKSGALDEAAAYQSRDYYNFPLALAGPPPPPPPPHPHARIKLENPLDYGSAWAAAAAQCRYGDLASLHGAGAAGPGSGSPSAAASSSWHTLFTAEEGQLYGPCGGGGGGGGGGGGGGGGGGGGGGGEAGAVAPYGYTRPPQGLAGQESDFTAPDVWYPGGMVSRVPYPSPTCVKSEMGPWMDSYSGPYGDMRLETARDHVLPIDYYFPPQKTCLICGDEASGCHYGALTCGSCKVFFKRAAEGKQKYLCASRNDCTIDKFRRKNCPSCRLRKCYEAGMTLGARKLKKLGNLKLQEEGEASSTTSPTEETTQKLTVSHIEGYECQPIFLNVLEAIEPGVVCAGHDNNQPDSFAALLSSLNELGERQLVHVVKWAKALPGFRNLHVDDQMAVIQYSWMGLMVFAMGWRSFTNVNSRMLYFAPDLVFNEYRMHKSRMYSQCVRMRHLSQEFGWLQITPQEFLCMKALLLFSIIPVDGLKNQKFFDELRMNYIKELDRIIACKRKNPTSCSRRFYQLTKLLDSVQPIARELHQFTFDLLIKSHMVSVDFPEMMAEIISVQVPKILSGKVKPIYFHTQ
T1 sequence (P10275 1-920) 2: T1 sequence (P10275 1-920) 1

[5] = target: T1, human AR; assay: cell-based; parameters: species or system AR2 cells (HepG2-AR2); NanoLuc complementation AR homodimerization, antagonist mode, loss of agonist-induced luminescence, AC50 by Hill fit; conditions: hill_ga
[6] = target: T1, human AR; assay: AR2 assay, agonist mode: ligand-dependent AR homodimerization (NanoBiT luciferase complementation) in stable HepG2-AR2 cells; type: cell-based; conditions: for hill_gw: Hill model gain slope (Hill coefficient); for hill_gw / hill_tp: 0 given where win_model is Constant; for hill_tp: Hill model top (efficacy); for win_model: winning concentration-response model (Constant, Hill, Gain-Loss);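 as to hill tp: Log2 fold change of luminescence over DMSO vehicle wells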;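 as to max med: Log2 fold change of luminescence over DMSO vehicle wells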
[7] = target: T1, human AR; assay: cell-based; parameters: species or system AR2 cells (HepG2-AR2); NanoLuc complementation AR homodimerization, agonist mode, luminescence gain, AC50 by Hill fit; conditions: hill_ga
[8] = spid AR_antagonist, sheet antagonist_fits
[9] = spid AR_antagonist, sheet antagonist_fits, 0 where win_model is Constant
[10] = spid=No_RNA, antagonist mode, 10 nM agonist stimulus, 18 h, no CYP expressed
[11] = sheet agonist_fits, maximum median response
[12] = spid=Bgal, agonist mode, 18 h, no CYP expressed
[13] = spid=Bgal, antagonist mode, 10 nM agonist stimulus, 18 h, no CYP expressed

CCNc1nc(Cl)nc(NC(C)C)n1 [Atrazine]
Agonist reference [1]: Inactive | Antagonist reference [1]: Inactive | Agonist reference ([1]; Supplementary Table S1): Inactive | Antagonist reference ([1]; Supplementary Table S1): Inactive | max_med (maximum median response) [2]: 11.6649 | hill_tp (Hill model top) [2]: 7.792 | hill_ga (Hill model log AC50) [3]: 1.242

CC(C)NC(=O)N1CC(=O)N(c2cc(Cl)cc(Cl)c2)C1=O [Iprodione]
Agonist reference ([1]; Supplementary Table S1): Inactive | max_med (maximum median response) [2]: 9.628 | hill_tp (Hill model top) [2]: 0 | hill_ga (Hill model log AC50) [3]: 0

ClC(Cl)=C(c1ccc(Cl)cc1)c1ccc(Cl)cc1 [p,p'-DDE]
Antagonist reference ([1]; Supplementary Table S1): Weak | hill_ga (Hill model log AC50) [3]: 1.812

N#Cc1ccc(C(c2ccc(C#N)cc2)n2cncn2)cc1 [Letrozole]
max_med (maximum median response) [4, 8]: 39.7548 | win_model (winning concentration-response model) [4, 8]: Hill | hill_gw (Hill model slope) [4, 9]: 1.809 | hill_tp (Hill model top) [4, 9]: 49.9358 | AC50 [5, 10]: 54.9 µM | max_med (maximum median response) [2]: 11.0349 | hill_tp (Hill model top) [2]: 0 | hill_gw ([6]; sheet agonist_fits): 3.273 | hill_tp ([6]; sheet agonist_fits): 5.82 | max_med [6, 11]: 6.074 | win_model ([6]; sheet agonist_fits): Gain-Loss | AC50 [7, 12]: > 99.9 µM

O=C1C[C@@H](c2ccc(O)cc2)Oc2cc(O)cc(O)c21 [Naringenin]
hill_tp (Hill model top) [4]: 38.8754 | max_med (maximum median response) [4]: 37.0321 | win_model (winning concentration-response model) [4, 8]: Hill | hill_gw (Hill model slope) [4, 9]: 8 | AC50 [5, 13]: 49.8 µM | AC50 [5, 10]: 57.7 µM | max_med (maximum median response) [2]: 0.3009 | hill_tp (Hill model top) [2]: 0 | hill_gw ([6]; sheet agonist_fits): 8 | hill_tp ([6]; sheet agonist_fits): 0.1206 | max_med [6, 11]: 0.1409 | win_model ([6]; sheet agonist_fits): Gain-Loss | AC50 [7, 12]: > 99.9 µM

C=CC1(C)OC(=O)N(c2cc(Cl)cc(Cl)c2)C1=O (stereo not drawn) [Vinclozolin]
Antagonist reference [1]: Weak | Antagonist reference ([1]; Supplementary Table S1): Weak | max_med (maximum median response) [2]: 15.9864 | hill_tp (Hill model top) [2]: 12.9726 | hill_ga (Hill model log AC50) [3]: -3.255

CCOP(=S)(OCC)Oc1nc(Cl)c(Cl)cc1Cl [Chlorpyrifos]
max_med (maximum median response) [4, 8]: 43.366 | win_model (winning concentration-response model) [4, 8]: Hill | hill_gw (Hill model slope) [4, 9]: 1.601 | hill_tp (Hill model top) [4, 9]: 66.6083 | AC50 [5]: 32.9 µM and 58.7 µM | max_med (maximum median response) [2]: 11.582 | hill_tp (Hill model top) [2]: 0 | max_med [6, 11]: -0.04623 | AC50 [7]: > 99.9 µM

CCCN(CCC)c1c([N+](=O)[O-])cc(C(F)(F)F)cc1[N+](=O)[O-] [Trifluralin]
hill_tp (Hill model top) [4]: 55.7657 | max_med (maximum median response) [4]: 39.0604 | win_model (winning concentration-response model) [4, 8]: Hill | hill_gw (Hill model slope) [4, 9]: 1.383 | AC50 [5, 13]: 52.2 µM | AC50 [5, 10]: 47.5 µM | max_med (maximum median response) [2]: 33.7321 | hill_tp (Hill model top) [2]: 18.5971 | hill_gw ([6]; sheet agonist_fits): 0.3 | hill_tp ([6]; sheet agonist_fits): 0.2593 | max_med [6, 11]: 0.1998 | win_model ([6]; sheet agonist_fits): Gain-Loss | AC50 ([7]; spid=No_RNA, agonist mode, 18 h, no CYP expressed): > 99.9 µM

OC(c1ccc(Cl)cc1)(c1cncnc1)c1ccccc1Cl (stereo not drawn) [Fenarimol]
Agonist reference [1]: Inactive | Antagonist reference [1]: Weak | Antagonist reference ([1]; Supplementary Table S1): Weak | max_med (maximum median response) [2]: 16.9049 | hill_tp (Hill model top) [2]: 0 | hill_ga (Hill model log AC50) [3]: 0

CC1(C)C(C=C(Cl)Cl)C1C(=O)OC(C#N)c1ccc(F)c(Oc2ccccc2)c1 (stereo not drawn) [Cyfluthrin]
Agonist reference [1]: Inactive | max_med (maximum median response) [2]: 9.8887 | hill_tp (Hill model top) [2]: 0 | hill_ga (Hill model log AC50) [3]: 0

O=[N+]([O-])c1c(Cl)c(Cl)c(Cl)c(Cl)c1Cl [Pentachloronitrobenzene]
max_med (maximum median response) [4, 8]: 40.8543 | win_model (winning concentration-response model) [4, 8]: Hill | hill_gw (Hill model slope) [4, 9]: 8 | hill_tp (Hill model top) [4, 9]: 49.0252 | max_med (maximum median response) [2]: 37.6424 | hill_tp (Hill model top) [2]: 16.6244 | hill_gw ([6]; sheet agonist_fits): 5.807 | hill_tp ([6]; sheet agonist_fits): 0.296 | max_med [6, 11]: 0.2467 | win_model ([6]; sheet agonist_fits): Gain-Loss | AC50 [7, 12]: > 99.9 µM

CCOC(=O)c1ccc(O)cc1 [Ethylparaben]
max_med (maximum median response) [2]: 6.202 | hill_tp (Hill model top) [2]: 0 | hill_ga (Hill model log AC50) [3]: 0

CCNc1nc(Cl)nc(NCC)n1 [Simazine]
Antagonist reference [1]: Inactive | max_med (maximum median response) [2]: 12.6117 | hill_tp (Hill model top) [2]: 7.295 | hill_ga (Hill model log AC50) [3]: -0.7451

Clc1ccc(C(c2ccccc2Cl)C(Cl)(Cl)Cl)cc1 (stereo not drawn) [o,p'-DDT]
Agonist reference [1]: Inactive | Antagonist reference [1]: Weak | Antagonist reference ([1]; Supplementary Table S1): Weak | hill_ga (Hill model log AC50) [3]: 1.826 | hill_tp (Hill model top of curve) ([3]; human): 110.666 | max_med (maximum median response) ([3]; human): 83.8839

CC(C)(C)C(=O)C(Oc1ccc(Cl)cc1)n1cncn1 (stereo not drawn) [Triadimefon]
max_med (maximum median response) [2]: 19.918 | hill_tp (Hill model top) [2]: 58.3985 | hill_ga (Hill model log AC50) [3]: -3.878

CC1(C)C(C=C(Cl)Cl)C1C(=O)OC(C#N)c1cccc(Oc2ccccc2)c1 (stereo not drawn) [Cypermethrin]
Agonist reference [1]: Inactive | max_med (maximum median response) [2]: 5.609 | hill_tp (Hill model top) [2]: 0 | hill_ga (Hill model log AC50) [3]: 0

CCCSP(=O)(OCC)SCCC [Ethoprop]
max_med (maximum median response) [4, 8]: 30.1172 | win_model (winning concentration-response model) [4, 8]: Hill | hill_gw (Hill model slope) [4, 9]: 1.091 | hill_tp (Hill model top) [4, 9]: 36.6932 | max_med (maximum median response) [2]: 22.3553 | hill_tp (Hill model top) [2]: 18.1513 | max_med [6]: -0.01755 | AC50 [7, 12]: > 99.9 µM

CNc1cnn(-c2cccc(C(F)(F)F)c2)c(=O)c1Cl [Norflurazon]
max_med (maximum median response) [2]: 4.6212 | hill_tp (Hill model top) [2]: 0 | hill_ga (Hill model log AC50) [3]: 0
